From patent publication US11466028B2, “Fused 1,4-oxazepines as BET protein degraders” (THE REGENTS OF THE UNIVERSITY OF MICHIGAN, priority 2016, dated 2022)

Tests used:
MDA-MB-231 [1] = assay: CellTiter-Glo cell growth inhibition, MDA-MB-231; type: cell-based; settings: Homo sapiens, MDA-MB-231, 96 h, 4 days, Table 4
Method: (§1) Cell growth inhibitory activity of representative Compounds of the Disclosure was determined using the CellTiter-Glo® Luminescent Cell Viability Assay. Cells were seeded in 384-well white opaque cell culture plates at a density of 2,000 cells/well with serially diluted compounds and incubated at 37° C. in an atmosphere of 95% air and 5% CO2 for 4 days. Cell viability was determined using the CellTiter-Glo® Luminescent Cell Viability Assay Kit (Promega, Madison, Wis.) according to the manufacture's instruction. Briefly, a volume of CellTiter-Glo® Reagent equal to the volume of cell culture medium was added to each well, and then the plates were incubated at room temperature for 10-20 minutes. The luminescent signal was measured using a Tecan Infinite M1000 multimode microplate reader (Tecan, Morrisville, N.C.). The half maximal inhibitory concentration (IC50) was calculated using the GraphPad Prism 5 software (GraphPad Software, La Jolla, Calif.).

MOLM-13 = assay: CellTiter-Glo cell growth inhibition, MOLM-13; type: cell-based; settings: Homo sapiens, MOLM-13, 96 h, 4 days, Table 4, read-out: MOLM-13 IC50
Method: as §1
(§2) Cpd. Nos. 18 and 19 were tested in various leukemia cell lines using the CellTiter-Glo® Luminescent Cell Viability Assay as described in Example 35.

RS4;11 = assay: CellTiter-Glo cell growth inhibition, RS4;11; type: cell-based; settings: Homo sapiens, RS4-11, 96 h, 4 days, Table 4, read-out: RS-4, 11 IC50
Method: as §1, §2

RS4;11 xenograph tumors = assay: RS4;11 xenograft model; type: in vivo, SCID mice; settings: for tumor regression in RS4;11 xenograph tumors: SCID mice
Method: Cpd. Nos. 7 and 11 were dissolved in 10% PCP [10% PEG400 (Sigma), 3% Cremophor (Sigma), and 87% PBS (Gibco)]. The pH of the drug solutions were checked before use and adjusted with 0.5N NaOH to be between pH 6.5 and 8.0 for IV (intravenous) administration.
RS4;11 cells were maintained at 37° C., 95% air, 5% carbon dioxide in Improved MEM (Richter's Mod.) supplemented with 10% Fetal Bovine Serum, 100 units/ml of penicillin and 100 units/ml of streptomycin (GIBCO™, Invitrogen Corp.) and passaged twice weekly.
Tumor cells for xenografts were harvested with Trypsin (0.05%)-EDTA (0.53 mM) (GIBCO™, Invitrogen Corp.), growth medium added and cells placed on ice. Cells were washed once with 1×PBS (GIBCO™, Invitrogen Corp.) and re-suspended in PBS. After washing in PBS, cells were re-suspended in an ice cold mixture of 1:1 PBS and Matrigel (BD Biosciences, Invitrogen Corp.) for a final Matrigel protein concentration of 5 mg/ml. Cells at 5×10^6 cells in 0.1 ml were injected subcutaneously (s.c.) into the flank region of each mouse using a 25 gauge needle. All tumors were inoculated into SCID mice (strain:236) C.B-17 SCID, Charles River.
The size of tumors growing in the mice was measured in two dimensions using calipers. Tumor volume (mm^3)═(A×B^2)/2 where A and B are the tumor length and width (in mm), respectively. During treatment, tumor volume and body weight were measured three times a week. After the treatment was stopped, tumor volume and body weight was measured at least once a week.
Tumors were not allowed to exceed 10% of the animals total body weight. If an animal had two or more tumors the total weight of all tumors were not allowed to exceed 10% of the animal's total body weight. At the end of the experimental period or when tumor size approached 10% of the total body weight, the animal was euthanized.
Before treatment began, tumors were allowed to grow to 100-200 mm^3 in volume, at which point the blood vessel supplies to the tumor should have been well established. Mice with tumors within acceptable size range were randomized into treatment groups of seven mice. Cpd. Nos. 7 and 11 were given i.v. at 10 mg/kg at days 1,3, and 5 per week for two weeks. The Control group received vehicle alone. Cpd. Nos. 16, 18, 22 and 48 were given i.v. at 5 mg/kg at days 1, 3, and 5 per week for two weeks. The Control group received vehicle alone.
(§3) Representative Compounds of the Disclosure were tested in the RS4;11 and other xenograph models using similar techniques. […] No. 22 in the MDA-MB-231 TNBC model.

WHIM24 breast cancer PDX = WHIM24 breast cancer PDX model; type: in vivo; settings: FIG. 10
Method: as §3

MV4;11 xenograph = MV4;11 xenograph model; type: in vivo
Method: as §3

MDA-MB-468 TNBC = MDA-MB-468 TNBC model; type: in vivo; settings: FIG. 11
Method: as §3

MDA-MB-231 TNBC = MDA-MB-231 TNBC model; type: in vivo; settings: FIG. 12
Method: as §3

MDA-MB-231 [2] = assay: WST-8 cell growth inhibition assay, MDA-MB-231; type: cell-based; settings: Homo sapiens, WST-8, Table 6
Method: (§4) Cpd. Nos. 7 and 18 were tested in various triple-negative breast cancer cell lines using the WST-8 cell growth assay.

MDA-MB-468 = assay: WST-8 cell growth inhibition assay, MDA-MB-468; type: cell-based; settings: Homo sapiens, WST-8, Table 6
Method: as §4

MDA-MB-157 = assay: WST-8 cell growth inhibition assay, MDA-MB-157; type: cell-based; settings: Homo sapiens, WST-8, Table 6
Method: as §4

MDA-MB-474 = assay: WST-8 cell growth inhibition assay, MDA-MB-474; type: cell-based; settings: WST-8, Table 6
Method: as §4

HBL100 = assay: WST-8 cell growth inhibition assay, HBL100; type: cell-based; settings: Homo sapiens, HBL-100; WST-8, Table 6
Method: as §4

MDA-MB-453 = assay: WST-8 cell growth inhibition assay, MDA-MB-453; type: cell-based; settings: Homo sapiens, WST-8, Table 6
Method: as §4

MDA-MB-436 = assay: WST-8 cell growth inhibition assay, MDA-MB-436; type: cell-based; settings: Homo sapiens, WST-8, Table 6
Method: as §4

Structure (SMILES)	IC50 (MDA-MB-231 [1]) [nM]	IC50 (MOLM-13) [nM]	IC50 (RS4;11) [nM]	tumor regression in RS4;11 xenograph tumors (RS4;11 xenograph tumors; i.v. 5 mg/kg at days 1, 3, 5 per week for two weeks, FIG. 4)	tumor regression in the RS4;11 xenograph model (RS4;11 xenograph tumors; every other day dosing schedule, FIG. 6)	tumor regression in the RS4;11 xenograph model (RS4;11 xenograph tumors; single dose or weekly dosing schedule, FIG. 7)	tumor regression in the WHIM24 breast cancer PDX model (WHIM24 breast cancer PDX)	tumor regression in the MV4;11 xenograph model (MV4;11 xenograph; FIG. 8)	tumor regression in the MV4;11 xenograph model (MV4;11 xenograph; FIG. 9)	tumor regression in the MDA-MB-468 TNBC model (MDA-MB-468 TNBC)	tumor regression in the MDA-MB-231 TNBC model (MDA-MB-231 TNBC)	IC50 (MDA-MB-231 [2]) [nM]	IC50 (MDA-MB-468) [nM]	IC50 (MDA-MB-157) [nM]	IC50 (MDA-MB-474) [nM]	IC50 (HBL100) [nM]	IC50 (MDA-MB-453) [nM]	IC50 (MDA-MB-436) [nM]	tumor regression in RS4;11 xenograph tumors (RS4;11 xenograph tumors; i.v. 10 mg/kg at days 1, 3, 5 per week for two weeks, FIG. 3)
Cc1nnc2n1-c1sc(C#Cc3cnn(CCCC#Cc4cccc5c4CN(C4CCC(=O)NC4=O)C5=O)c3)c(Cc3ccccc3)c1COC2 (stereo not shown) [Cpd. No. 22, 3-(4-(5-(4-((3-benzyl-9-methyl-4H,6H-thieno[2,3-e][1,2,4]triazolo[3,4-c][1,4]oxazepin-2-yl)ethynyl)-1H-pyrazol-1-yl)pent-1-yn-1-yl)-1-oxoisoindolin-2-yl)piperidine-2,6-dione]	< 0.015	0.85	0.11	induce tumor regression	induces tumor regression	induces tumor regression	induces tumor regression	induces tumor regression	induce tumor regression	induces tumor regression	induces tumor regression								
Cc1nnc2n1-c1sc(C#Cc3cnn(CCCCNc4cccc5c4C(=O)N(C4CCC(=O)NC4=O)C5=O)c3)c(Cc3ccccc3)c1CO[C@H]2C (stereo partly drawn) [Cpd. No. 7, 4-((4-(4-(((S)-3-benzyl-6,9-dimethyl-4H,6H-thieno[2,3-e][1,2,4]triazolo[3,4-c][1,4]oxazepin-2-yl)ethynyl)-1H-pyrazol-1-yl)butyl)amino)-2-(2,6-dioxopiperidin-3-yl)isoindoline-1,3-dione]	0.8	0.7	0.03									1.2 ± 0.13	2.46 ± 0.07	0.29 ± 0.02	1.09 ± 0.06	1.7 ± 0.15	1.02 ± 0.03	2.24 ± 0.3	induce tumor regression
